Data taken from publication PMC6444592, “Citrullination of HP1γ chromodomain affects association with chromatin” (Epigenetics & Chromatin, 2019).

Key:
[1] = test system: mESCs; experiment: live-cell single-particle tracking, 13.5 ms, jump distance analysis; format: cell-based, mouse
Description: (§1) Parental E14 mouse embryonic stem cell (mESC) line was profiled by transcriptome analysis, qPCR and potency assays and was routinely tested for mycoplasma contamination and tested negative. Cells were cultured in DMEM (Gibco) supplemented with 15% standard FCS (Gibco), 0.1 mM non-essential amino acids (Gibco), 1% penicillin/streptomycin, 2 mM L-glutamine (Gibco), 1 mM sodium pyruvate (Gibco), 0.1 mM β-mercaptoethanol (Life Technologies) and 10^6 units/l mLIF (ESGRO, Millipore). E14 cells were stored in incubators at 37 °C in 7.5% CO2 (100% humidity) and maintained in 0.1% gelatin coated 10-cm culture dishes with 1:6 passaging every 2 days. Media was changed on a daily basis. E14 ESCs expressing mouse mEos3.2–HaloTag-HP1 fusion proteins were generated by transfecting appropriate pSB7 plasmids into E14 cells using Lipofectamine 2000 transfection reagent (Invitrogen), followed by selection in 600 µg/ml geneticin (Life Technologies). After 2 weeks of geneticin selection, cells were sorted using a Sony SH800S cell sorter for the expression of mEos3.2. Differentiation of ESCs was induced by LIF withdrawal. ESCs cultured in complete ES cell media (+ LIF) were trypsinised and washed twice in 1x PBS to remove residual LIF, seeded into ES cell media without LIF and incubated for 24, 48 or 72 h.
An IX73 Olympus inverted microscope was used with circularly polarised laser beams aligned and focused at the back aperture of an Olympus 1.40 NA 100 × oil objective (Universal Plan Super Apochromat, 100 × , NA 1.40, UPLSAPO100XO/1.4). Continuous wavelength diode laser light sources used include a 561-nm (Cobolt, Jive 200, 200 mW) and a 405-nm laser (Stradus, Toptica, 405–100, 100 mW). Oblique angle illumination was achieved by aligning the laser off axis such that the emergent beam at the sample interface was near-collimated and incident at an angle slightly less than the critical angle θc ~ 67° for a glass/water interface. This generated a ~ 50 μm diameter excitation footprint. The power of the collimated beams at the back aperture of the microscope was 10 kW/cm^2 and 10–100 W/cm^2 for the 561-nm and 405-nm laser beams, respectively. The lasers were reflected by dichroic mirrors (Semrock, Di01-R405/488/561/635). The fluorescence emission was collected through the same objective and then further filtered using a combination of long-pass and band-pass filters (BLP01-561R and FF01-587/35 for 561 nm excitation). The emission signal was projected onto an EMCCD (Photometrics, Evolve 512 Delta) with an electron multiplication gain of 250 ADU/photon operating in a frame transfer mode.
mESCs expressing mEos3.2–HaloTag-tagged HP1γ were passaged 2 days before imaging onto 35-mm glass bottom dishes No 1.0 (MatTek Corporation P35G-1.0-14-C Case) in phenol red-free serum and LIF conditions, if not stated otherwise. Just before single-particle tracking (SPT) imaging experiments, cells were labelled with 0.5 nM HaloTag–JF549 ligand for at least 15 min, followed by two washes in PBS and a 30-min incubation at 37 °C in media, before imaging the cells in fresh phenol red-free serum and LIF conditions. Cells were under-labelled to prevent overlap of fluorophores during SPT. Using 561 nm excitation, fluorescence images were collected as movies of 10,000 frames at 13.5 ms or 1000 to 5000 frames at 500 ms exposure. For live-cell tracking, data were collected for three biological replicates on separate dishes and the average values compared.
Live-cell 13.5-ms single-molecule traces were analysed using software that detects single-molecule trajectories from SPT movies. Briefly, the code detected puncta positions in each image frame using a brightness-weighted centroid after applying a band-pass filter to remove low-frequency background and high-frequency noise from the image data. To track the HP1 single molecules, only fluorescent puncta smaller than 3 pixels and with a signal to noise greater than 8 were analysed. […]

[2] = test system: mESCs; experiment: pluripotency marker mRNA (RT-PCR) and morphology of mESCs; format: cell-based, mouse; conditions: mESCs stably expressing fusion protein; +/− LIF; n = 2
Description: as §1, with “Differentiation of ESCs was induced by LIF withdrawal. ESCs cultured in complete ES cell media (+ LIF) were trypsinised and washed twice in 1x PBS to remove residual LIF, seeded into ES cell media without LIF and incubated for 24, 48 or 72 h.” left out
Cells were lysed using QIAzol® lysis reagent (Qiagen) and total RNA was isolated using RNeasy® Mini Kit with in column DNase treatment (Qiagen). […] Relative expression was calculated with the 2^−ΔΔCt method, normalising to the housekeeping gene β-actin. Data were analysed using GraphPad Prism 7 software. […]

## HP1γR38/9A: HP1γ with alanine substitutions at amino acids 38 and 39 to mimic citrullination
[1]; +LIF, 13.5 ms, replicate i
  Diffusion coefficient, Bound: 0.090 µm2s-1
  Diffusion coefficient, Diffusing: 0.746 µm2s-1
  Percentage, Bound: 38.9%
  Percentage, Diffusing: 61.1%
[1]; +LIF, 13.5 ms, replicate ii
  Diffusion coefficient, Bound: 0.100 µm2s-1
  Diffusion coefficient, Diffusing: 0.761 µm2s-1
  Percentage, Bound: 29.6%
  Percentage, Diffusing: 70.4%
[1]; +LIF, 13.5 ms, replicate iii
  Diffusion coefficient, Bound: 0.100 µm2s-1
  Diffusion coefficient, Diffusing: 0.706 µm2s-1
  Percentage, Bound: 34.1%
  Percentage, Diffusing: 65.9%
[1]; +LIF, 13.5 ms, replicate iv
  Diffusion coefficient, Bound: 0.100 µm2s-1
  Diffusion coefficient, Diffusing: 1.012 µm2s-1
  Percentage, Bound: 21.5%
  Percentage, Diffusing: 78.5%
[1]; +LIF, 13.5 ms, replicate v
  Diffusion coefficient, Bound: 0.100 µm2s-1
  Diffusion coefficient, Diffusing: 1.094 µm2s-1
  Percentage, Bound: 13.1%
  Percentage, Diffusing: 86.9%
[1]; +LIF, 13.5 ms, replicate vi
  Diffusion coefficient, Bound: 0.100 µm2s-1
  Diffusion coefficient, Diffusing: 1.108 µm2s-1
  Percentage, Bound: 37.1%
  Percentage, Diffusing: 62.9%
[1]; WT and R38/9A, +/− LIF, p values > 0.967
  percentages of molecules in diffusing and bound fractions, significance across conditions: ns.
[1]; WT and R38/9A, +/− LIF, p values > 0.999
  diffusion coefficients, significance across conditions: no significant differences across conditions
[1]; −LIF 72 h versus +LIF, 13.5 ms
  diffusion rate, effect of LIF withdrawal: no significant effect
[1]; −LIF, 13.5 ms, replicate i
  Diffusion coefficient, Bound: 0.075 µm2s-1
  Diffusion coefficient, Diffusing: 0.609 µm2s-1
  Percentage, Bound: 44.5%
  Percentage, Diffusing: 55.5%
[1]; −LIF, 13.5 ms, replicate ii
  Diffusion coefficient, Bound: 0.100 µm2s-1
  Diffusion coefficient, Diffusing: 0.697 µm2s-1
  Percentage, Bound: 37.2%
  Percentage, Diffusing: 62.8%
[1]; −LIF, 13.5 ms, replicate iii
  Diffusion coefficient, Bound: 0.100 µm2s-1
  Diffusion coefficient, Diffusing: 0.913 µm2s-1
  Percentage, Bound: 32.9%
  Percentage, Diffusing: 67.1%
[1]; −LIF, 13.5 ms, replicate iv
  Diffusion coefficient, Bound: 0.100 µm2s-1
  Diffusion coefficient, Diffusing: 0.659 µm2s-1
  Percentage, Bound: 34.6%
  Percentage, Diffusing: 65.4%
[1]; −LIF, 13.5 ms, replicate ix
  Diffusion coefficient, Bound: 0.100 µm2s-1
  Diffusion coefficient, Diffusing: 1.031 µm2s-1
  Percentage, Bound: 28.9%
  Percentage, Diffusing: 71.1%
[1]; −LIF, 13.5 ms, replicate v
  Diffusion coefficient, Bound: 0.100 µm2s-1
  Diffusion coefficient, Diffusing: 0.710 µm2s-1
  Percentage, Bound: 39.6%
  Percentage, Diffusing: 60.4%
[1]; −LIF, 13.5 ms, replicate vi
  Diffusion coefficient, Bound: 0.100 µm2s-1
  Diffusion coefficient, Diffusing: 0.582 µm2s-1
  Percentage, Bound: 38.6%
  Percentage, Diffusing: 61.4%
[1]; −LIF, 13.5 ms, replicate vii
  Diffusion coefficient, Bound: 0.100 µm2s-1
  Diffusion coefficient, Diffusing: 0.774 µm2s-1
  Percentage, Bound: 36.9%
  Percentage, Diffusing: 63.1%
[1]; −LIF, 13.5 ms, replicate viii
  Diffusion coefficient, Bound: 0.100 µm2s-1
  Diffusion coefficient, Diffusing: 0.812 µm2s-1
  Percentage, Bound: 33.6%
  Percentage, Diffusing: 66.4%
[2]
  effect of exogenous expression on pluripotency marker mRNA and morphology: no discernible effect on mESC differentiation
